Data reported in patent US8026359B2, “Fungicidal heterocyclic amines” (E.I. du Pont de Nemours and Company, priority 2007, dated 2011).

What was measured:
Assay type in all cases: in vivo
[1] = tested on: Septoria tritici; assay: Test D: wheat leaf blotch, preventive spray on wheat seedlings; conditions: 200 ppm, 100 = 100% disease control, 0 = no control relative to controls
How it was run: (§1)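 Test plants received run-off sprays of 200 ppm suspension (500 g/ha equivalent) or 40 ppm suspension. These suspensions were made by first dissolving each compound in acetone, then suspending it in an equal acetone/water mix carrying 250 ppm Trem 014.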

[2] = tested on: Septoria nodorum; assay: Test C: wheat glume blotch, preventive spray on wheat seedlings; conditions: 200 ppm, 100 = 100% disease control, 0 = no control relative to controls
How it was run: as §1

[3] = tested on: Fusarium graminearum; assay: whole plant or invertebrate
[4] = tested on: Rhizoctonia oryzae; assay: Test J: turf brown patch, preventive spray on creeping bent grass seedlings; conditions: 200 ppm; 100 = 100% disease control, 0 = no control relative to controls
Source text: (§2) General protocol for preparing test suspensions for Tests A-R: The test compounds were first dissolved in acetone in an amount equal to 3% of the final volume and then suspended at the desired concentration (in ppm) in acetone and purified water (50/50 mix) containing 250 ppm of the surfactant Trem® 014 (polyhydric alcohol esters). The resulting test suspensions were then used in tests A-R. In Tests A-M, compounds were sprayed as a 200 ppm test suspension (equivalent to a rate of 500 g/ha) or as a 40 ppm test suspension to the point of runoff on the test plants. In Tests N-R, compounds were sprayed as a 100 g/ha test suspension (equivalent to a rate of 100 ppm) on the test plants at an application volume of 1000 L/ha. The test suspension was sprayed to the point of run-off on creeping bent grass seedlings.

[5] = tested on: Botrytis cinerea; assay: Test F: tomato Botrytis, preventive spray on tomato seedlings; conditions: 200 ppm, 100 = 100% disease control, 0 = no control relative to controls
How it was run: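 Preventive run-off spray onto tomato seedlings at 200 ppm (equivalent to 500 g/ha) or 40 ppm. Suspensions: compound predissolved in acetone at 3% of final volume, then taken up in acetone/purified water 50/50 containing 250 ppm Trem® 014 surfactant.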

[6] = tested on: Erysiphe graminis f. sp. tritici; assay: Test A: wheat powdery mildew, preventive spray on wheat seedlings; conditions: 200 ppm, 100 = 100% disease control, 0 = no control relative to controls
How it was run: as §1

[7] = tested on: Sclerotinia sclerotiorum; assay: Test G: cucumber white mold, preventive spray on cucumber seedlings; conditions: 200 ppm; 100 = 100% disease control, 0 = no control relative to controls
Source text: as §2, with “cucumber” for “creeping bent grass”

[8] = tested on: Phytophthora infestans; conditions: 200 ppm; 100 = 100% disease control, 0 = no control relative to controls
[9] = tested on: Pythium aphanidermatum; assay: Test M: bluegrass pythium blight, preventive spray on bluegrass seedlings; conditions: 200 ppm; 100 = 100% disease control, 0 = no control relative to controls
Source text: as §2, with “bluegrass” for “creeping bent grass”

[10] = tested on: Puccinia recondita f. sp. tritici; assay: Test B: wheat leaf rust, preventive spray on wheat seedlings; conditions: 200 ppm, 100 = 100% disease control, 0 = no control relative to controls
How it was run: as §1

[11] = tested on: Colletotrichum orbiculare; assay: Test I: cucumber Colletotrichum anthracnose, preventive spray on cucumber seedlings; conditions: 100 = 100% disease control, 0 = no control relative to controls
How it was run: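 Preventive foliar spray to run-off on cucumber seedlings, at 200 ppm (stated as equal to 500 g/ha) or 40 ppm. Test suspensions were made in acetone/water 50/50 containing 250 ppm Trem 014, after first dissolving compound in acetone at 3% of final volume.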

[12] = tested on: Plasmopara viticola; assay: Test L: grape downy mildew, spray after inoculation of grape seedlings; conditions: 200 ppm; 100 = 100% disease control, 0 = no control relative to controls
Source text: as §2, with “L/ha. Grape seedlings were inoculated with a spore suspension of Plasmopara viticola (the causal agent of grape downy mildew) and incubated in a saturated atmosphere at 20° C. for 24 h. After a short drying period, the” for “L/ha. The”, “on the grape seedlings and then moved to a growth chamber at 20° C. for 6 days, after which time the test units were placed back into a saturated atmosphere at 20° C. for 24 h. Upon removal, disease ratings were made.” for “on creeping bent grass seedlings.”

COCC(C)Nc1nccc(-c2ccnc(Nc3cccc(F)c3)c2)n1 (stereo not drawn) [Compound 41]
Test D disease control rating [1]: 15% | Test C disease control rating [2]: 99% | Test E disease control rating ([3]; 200 ppm, 100 = 100% disease control, 0 = no control relative to controls): 45% | Test J disease control rating [4]: 34% | Test F disease control rating [5]: 96% | Test A disease control rating [6]: 57% | Test G disease control rating [7]: 94% | Test K disease control rating [8]: 0% | Test M disease control rating [9]: 0% | Test B disease control rating [10]: 98% | Test I disease control rating ([11]; 200 ppm): 54% | Test L disease control rating [12]: 0%

COCC(C)Nc1nccc(-c2ccnc(Nc3cccc(Cl)c3)c2)n1 (stereo not drawn) [Compound 40, 4-[2-[(3-chlorophenyl)amino]-4-pyridinyl]-N-(2-methoxy-1-methylethyl)-2-pyrimidinamine]
pest or weed control at 200 ppm ([1]; Zymoseptoria tritici, 504 h, read-out: Test D disease control rating): 27% | pest or weed control at 200 ppm ([2]; Parastagonospora nodorum, 216 h, read-out: Test C disease control rating): 99% | pest or weed control at 200 ppm ([3]; Fusarium graminearum, in Triticum aestivum, 192 h, read-out: Test E disease control rating): 48% | Test J disease control rating [4]: 0% | pest or weed control at 200 ppm ([5]; Botrytis cinerea, 120 h, read-out: Test F disease control rating): 99% | pest or weed control at 200 ppm ([6]; Blumeria graminis, 192 h, read-out: Test A disease control rating): 63% | Test G disease control rating [7]: 83% | Test K disease control rating [8]: 0% | Test M disease control rating [9]: 0% | pest or weed control at 200 ppm ([10]; Puccinia recondita, 192 h, read-out: Test B disease control rating): 90% | pest or weed control at 200 ppm ([11]; Colletotrichum orbiculare, 144 h, read-out: Test I disease control rating): 84% | Test L disease control rating [12]: 0%
